This note sets out measurements from patent US9511064B2, “Combination therapy for the treatment of cancer and immunosuppression” (Basilea Pharmaceutica AG, priority 2012, dated 2016).

Common to all, as to assay type: cell-based
For experiment [1], the system named is HL60 tumor cells. Kind of experiment: AlamarBlue conversion cell proliferation assay, HL60 cell line. The following applies: combined with 4 mM metformin, 3 days incubation, read-out: concentration that inhibits the proliferation of cells by approximately 50% when combined with 4 mM metformin, HL60 cell line. As for the experimental part:
(§1) The in vitro anti-proliferative activity of compounds of formula (I), metformin and combinations thereof is tested in an AlamarBlue conversion cell proliferation assay (Promega) on HL60 tumor cells and the mouse mast cell line 6.5 (Colombi et al., Oncogene 2011, 30:1551-65). Cells are seeded into 96-well microtiter plates (seeding cell density is 7,000 cells per well in 150 uL Iscove's medium) and test compounds are added (compounds of formula (I) are added from a 10 mM stock solution in DMSO, metformin from a freshly prepared 1 M solution in culture medium). Plates are incubated for 3 days at 37°, 5% CO2 and proliferation is determined by AlamarBlue staining (0.1 vol % added to cultures and incubated for further 4-5 hours). The conversion of AlamarBlue is proportional to live cell number and is read with a fluorescence plate reader (Ex/Em 535/595 nm). Growth is normalized to the untreated controls.
(Resazurin is reduced to fluorescent resorufin, in cell work by metabolically active cells.)

Experiment [2] has as its system mouse mast cell line 6.5. Kind of experiment: AlamarBlue conversion cell proliferation assay, 6.5 cell line. The settings on record: combined with 4 mM metformin, 3 days incubation, read-out: concentration that inhibits the proliferation of cells by approximately 50% when combined with 4 mM metformin, 6.5 cell line. As for the experimental part: as §1
Experiment [3] relates to HL60 tumor cells and the mouse mast cell line 6.5. In words: AlamarBlue conversion cell proliferation assay, general statements without cell line. The settings on record: metformin alone at 4 mM.

As to `COC(=O)[C@H]1[C@H]2C[C@@H]3c4[nH]c5cc(OC)ccc5c4CCN3C[C@H]2C[C@@H](OC(=O)c2cc(OC)c(OC(=O)OCc3cccc(C(F)(F)F)c3)c(OC)c2)[C@@H]1OC` [Example 32], the IC50 in experiment [1] and in experiment [2] was 2000 nM throughout. Regarding `COC(=O)[C@H]1[C@H]2C[C@@H]3c4[nH]c5cc(OC)ccc5c4CCN3C[C@H]2C[C@@H](OC(=O)c2cc(OC)c(OC(=O)OCc3cc(F)cc(F)c3)c(OC)c2)[C@@H]1OC` [Example 33], the IC50 in experiment [1] and in experiment [2] was 2000 nM in each case. Turning to `COC(=O)[C@H]1[C@H]2C[C@@H]3c4[nH]c5cc(OC)ccc5c4CCN3C[C@H]2C[C@@H](OC(=O)c2cc(OC)c(OC(=O)OCc3cccc4ccccc34)c(OC)c2)[C@@H]1OC` [Example 34], the figures for the IC50 in experiment [1] and in experiment [2] were 5000 nM and 7500 nM, respectively. Consider `COC(=O)[C@H]1[C@H]2C[C@@H]3c4[nH]c5cc(OC)ccc5c4CCN3C[C@H]2C[C@@H](OC(=O)c2cc(OC)c(OC(=O)OCc3cccc(Cl)c3)c(OC)c2)[C@@H]1OC` [Example 35], for which the IC50 in experiment [1] and in experiment [2] was 2000 nM in each case. Turning to `COC(=O)[C@H]1[C@H]2C[C@@H]3c4[nH]c5cc(OC)ccc5c4CCN3C[C@H]2C[C@@H](OC(=O)c2cc(OC)c(OC(=O)OCc3ccc(F)cc3)c(OC)c2)[C@@H]1OC` [Example 36], the IC50 in experiment [1] came out at 3000 nM; in experiment [2], 2500 nM.

As for `COC(=O)[C@H]1[C@H]2C[C@@H]3c4[nH]c5cc(OC)ccc5c4CCN3C[C@H]2C[C@@H](OC(=O)c2cc(OC)c(OC(=O)OCc3ccc(C(F)(F)F)cc3)c(OC)c2)[C@@H]1OC` [Example 38], the IC50 in experiment [1] and in experiment [2] was 4000 nM throughout.

For `CN(C)C(=N)NC(=N)N` [Metformin, 3-(diaminomethylidene)-1,1-dimethylguanidine], the “anti-proliferative activity on its own” value in experiment [3] was “do not show significant anti-proliferative activity”.
